The source of these data is patent publication US20260272879A1, “ANION-BINDING AROMATIC OLIGOAMIDE MACROCYCLES AND METHODS OF MAKING AND USING SAME” (The Research Foundation for The State University of New York, priority 2023, published 2026).

Data set [1] can be described thus: 1H NMR titration, binding of chloride. The following applies: n-Bu4N^+ salt, CD3CN/CDCl3 (1/9, v/v), room temperature. On the procedure: ^1H NMR Titration methods. Titrations of 4c and 6c with anions as their tetra-n-butyl ammonium (TBA) salts were carried out by ^1H NMR (400 MHz on Bruker-400) at room temperature (298 K). 0.5 mL of receptor 4c (5.0 mM) or 6c (2.0 mM) were prepared in the rubber-cap NMR tubes. Aliquots of concentrated TBACl or TBAI solution (50 mM for the titration of 4c and 20 mM for the titration of 6c) containing the same amount of receptors were added into the receptor solution using 20 microliter pipette. An initial ^1H NMR spectrum was collected and additional spectra were obtained after each injection of TBACl or TBAI solution. All titration ^1H NMR spectra were stacked together and the chemical shifts of amide protons were then fitted to the proposed 1:1 binding model using BindFit v0.5 (http://app.supramolecular.org/bindfit/).
(§1) Anion binding with four amides, i.e., L1mer-L4mer, was studied in the mixed solvents of CD3CN/CDCl3 (1/9, v/v) by titrating an amide host with 0 to 5 equivalents of tetrabutylammonium (n-Bu4N^+) salt of the corresponding anion. The binding of chloride, bromide, iodide, and nitrate was examined with the four amides in CDCl3 containing 10% CD3CN. The titration data were collected by monitoring the changes in chemical shifts of the backbone amide protons and the inner aromatic protons with varying ratios of the anion guests. Job plots indicate that these linear oligoamides and their anion guests bind in a 1:1 stoichiometry.
(§2) The binding of anions by macrocycle 7c was examined in CH3CN/CHCl3 (6/4, v/v) and in DMSO by titrating with various equivalents of the salts of chloride, iodide. nitrate, and dihydrogen phosphate, with tetrabutylammonium (n-Bu4N^+) being the counterion ion. Following the changes in the chemical shifts of backbone amide protons and “inner” aromatic protons allowed the determination of binding constants.
^1H NMR titration methods. Titrations of c5a and c5b with anions as their tetra-n-butylammonium (TBA), tetra-ethylammonium (TEA) and tetra-methylammonium (TMA) salts were carried out by ^1H NMR (400 MHz) at 25° C. […]

Data set [2] is described as follows: 1H NMR titration, binding of nitrate. Conditions: n-Bu4N^+ salt, CD3CN/CDCl3 (1/9, v/v), room temperature.
Excerpt: as §1, §2
^1H NMR titration methods. Titrations of c5a and c5b with anions as their tetra-n-butylammonium (TBA), tetra-ethylammonium (TEA) and tetra-methylammonium (TMA) salts were carried out by ^1H NMR (400 MHz) at 25° C. 0.4 mL of corresponding hosts solutions were prepared in the rubber-cap NMR tubes. Aliquots of concentrated guest solution containing hosts were added into the NMR tubes using 20 microliter pipette. An initial ^1H NMR spectrum was collected and additional spectra were obtained after each injection of guest solution. All titration ^1H NMR spectra were stacked together and the chemical shifts of the internal aromatic CH proton were then fitted to 1:1 binding model using BindFit v0.5 (http://app.supramolecular.org/bindfit/) to evaluate binding constants to anions.

The conditions of data set [3]: pH 8.3, in water; cited from earlier work.
The nature of data set [4]: Solubility. It is filed as physicochemical.

Take `CCCCCCCCCC(=O)Nc1ccc(NC(=O)C(C)(C)COCCCCCCCC)c(C(=O)Nc2ccc(NC(=O)C(C)(C)COCCCCCCCC)c(C(=O)Nc3ccc(NC(=O)C(C)(C)COCCCCCCCC)c(C(=O)Nc4ccc(NC(=O)C(C)(C)COCCCCCCCC)c(C(=O)NCCCCCC)c4)c3)c2)c1` [Compound L4mer]: in data set [1], the Ka of chloride result is given as “over 1,000 M^−1”. For the same compound, the Ka of nitrate in data set [2] is around 10000 M⁻¹. As to “SBP: sulfate-binding protein (SBP) from the gram-negative bacterium S. typhimurium”, in data set [3], the “Ka for the sulfate ion” value is 8.3e+06 M⁻¹. In the case of `CCCCCCCCCC(=O)Nc1ccc(NC(=O)C(C)(C)COCCCCCCCC)c(C(=O)NCCCCCC)c1` [Compound L1mer], the Ka of chloride in data set [1] worked out at 39 M⁻¹. Take `COCCOCCOCCOCC(C)(C)C(=O)Nc1ccc2cc1C(=O)Nc1ccc(NC(=O)C(C)(C)COCCOCCOCCOC)c(c1)C(=O)Nc1ccc(NC(=O)C(C)(C)COCCOCCOCCOC)c(c1)C(=O)Nc1ccc(NC(=O)C(C)(C)COCCOCCOCCOC)c(c1)C(=O)Nc1ccc(NC(=O)C(C)(C)COCCOCCOCCOC)c(c1)C(=O)N2` [c5b]: the “solubility in organic solvents” value in data set [4] (variety of / many organic solvents) is “soluble”. For the same compound, the solubility in water in data set [4] (water) was ~ 1 mM.
